Test results published in the NIST ThermoML archive (doi:10.1016/j.jct.2016.07.032).
± gives the expanded uncertainty stated by the source.

Tests used:
[1] = xn = mol fraction of the nth substance listed; conditions: 101.3 kPa, Liquid; for speed of sound: Frequency=3 MHz, Sing-around technique in a fixed-path interferometer; for mass density: Vibrating tube method
[2] = refractive index (Na D-line) (dimensionless); xn = mol fraction of the nth substance listed; conditions: 101.3 kPa, Liquid, Standard Abbe refractometry

CCOc1ccccc1 [ethoxybenzene] + C1CCOC1
Conditions	mass density, 298 K [kg/m3]	mass density, 303 K [kg/m3]	mass density, 308 K [kg/m3]	refractive index, 298 K	refractive index, 303 K	refractive index, 308 K	speed of sound, 298 K [m/s]	speed of sound, 303 K [m/s]	speed of sound, 308 K [m/s]
[1], x1 = 0.031	886 ± 2	883 ± 2	878 ± 2	–	–	–	1279 ± 2	1255 ± 2	1230 ± 2
[1], x1 = 0.072	892 ± 2	888 ± 2	883 ± 2	–	–	–	1281 ± 2	1256 ± 2	1231 ± 2
[1], x1 = 0.117	897 ± 2	893 ± 2	888 ± 2	–	–	–	1283 ± 2	1258 ± 2	1233 ± 2
[1], x1 = 0.197	905 ± 2	901 ± 2	897 ± 2	–	–	–	1287 ± 2	1262 ± 2	1237 ± 2
[1], x1 = 0.246	910 ± 2	906 ± 2	902 ± 2	–	–	–	1289 ± 2	1265 ± 2	1241 ± 2
[1], x1 = 0.326	918 ± 2	913 ± 2	909 ± 2	–	–	–	1295 ± 2	1271 ± 2	1247 ± 2
[1], x1 = 0.492	931 ± 2	927 ± 2	922 ± 2	–	–	–	1310 ± 2	1287 ± 2	1264 ± 2
[1], x1 = 0.695	944 ± 2	940 ± 2	935 ± 2	–	–	–	1332 ± 2	1309 ± 2	1287 ± 2
[1], x1 = 0.899	955 ± 2	951 ± 2	946 ± 2	–	–	–	1356 ± 2	1334 ± 2	1314 ± 2
[1], x1 = 1	960 ± 2	955 ± 2	951 ± 2	–	–	–	1369 ± 2	1349 ± 2	1329 ± 2
[2], x1 = 0.031	–	–	–	1.41 ± 0.002	1.408 ± 0.002	1.405 ± 0.002	–	–	–
[2], x1 = 0.072	–	–	–	1.417 ± 0.002	1.414 ± 0.002	1.412 ± 0.002	–	–	–
[2], x1 = 0.117	–	–	–	1.424 ± 0.002	1.422 ± 0.002	1.419 ± 0.002	–	–	–
[2], x1 = 0.197	–	–	–	1.436 ± 0.002	1.433 ± 0.002	1.43 ± 0.002	–	–	–
[2], x1 = 0.246	–	–	–	1.443 ± 0.002	1.44 ± 0.002	1.437 ± 0.002	–	–	–
[2], x1 = 0.326	–	–	–	1.453 ± 0.002	1.45 ± 0.002	1.447 ± 0.002	–	–	–
[2], x1 = 0.492	–	–	–	1.472 ± 0.002	1.469 ± 0.002	1.466 ± 0.002	–	–	–
[2], x1 = 0.695	–	–	–	1.49 ± 0.002	1.487 ± 0.002	1.483 ± 0.002	–	–	–
[2], x1 = 0.899	–	–	–	1.502 ± 0.002	1.499 ± 0.002	1.494 ± 0.002	–	–	–
[2], x1 = 1	–	–	–	1.505 ± 0.002	1.503 ± 0.002	1.499 ± 0.002	–	–	–

CCOc1ccccc1 [ethoxybenzene] + CN1CCCC1=O
Conditions	mass density, 298 K [kg/m3]	mass density, 303 K [kg/m3]	mass density, 308 K [kg/m3]	refractive index, 298 K	refractive index, 303 K	refractive index, 308 K	speed of sound, 298 K [m/s]	speed of sound, 303 K [m/s]	speed of sound, 308 K [m/s]
[1], x1 = 0.041	1023 ± 2	1019 ± 2	1015 ± 2	–	–	–	1534 ± 2	1515 ± 2	1497 ± 2
[1], x1 = 0.122	1018 ± 2	1014 ± 2	1010 ± 2	–	–	–	1513 ± 2	1495 ± 2	1477 ± 2
[1], x1 = 0.201	1013 ± 2	1009 ± 2	1005 ± 2	–	–	–	1495 ± 2	1477 ± 2	1460 ± 2
[1], x1 = 0.273	1008 ± 2	1004 ± 2	1000 ± 2	–	–	–	1480 ± 2	1462 ± 2	1445 ± 2
[1], x1 = 0.37	1001 ± 2	997 ± 2	993 ± 2	–	–	–	1460 ± 2	1443 ± 2	1427 ± 2
[1], x1 = 0.504	992 ± 2	988 ± 2	983 ± 2	–	–	–	1437 ± 2	1420 ± 2	1403 ± 2
[1], x1 = 0.628	983 ± 2	979 ± 2	975 ± 2	–	–	–	1418 ± 2	1400 ± 2	1383 ± 2
[1], x1 = 0.709	978 ± 2	974 ± 2	969 ± 2	–	–	–	1406 ± 2	1388 ± 2	1370 ± 2
[1], x1 = 0.822	971 ± 2	966 ± 2	962 ± 2	–	–	–	1391 ± 2	1372 ± 2	1354 ± 2
[1], x1 = 1	960 ± 2	955 ± 2	951 ± 2	–	–	–	1369 ± 2	1349 ± 2	1329 ± 2
[2], x1 = 0.041	–	–	–	1.469 ± 0.002	1.468 ± 0.002	1.466 ± 0.002	–	–	–
[2], x1 = 0.122	–	–	–	1.474 ± 0.002	1.472 ± 0.002	1.469 ± 0.002	–	–	–
[2], x1 = 0.201	–	–	–	1.478 ± 0.002	1.475 ± 0.002	1.473 ± 0.002	–	–	–
[2], x1 = 0.273	–	–	–	1.481 ± 0.002	1.479 ± 0.002	1.476 ± 0.002	–	–	–
[2], x1 = 0.37	–	–	–	1.485 ± 0.002	1.483 ± 0.002	1.48 ± 0.002	–	–	–
[2], x1 = 0.504	–	–	–	1.491 ± 0.002	1.488 ± 0.002	1.485 ± 0.002	–	–	–
[2], x1 = 0.628	–	–	–	1.495 ± 0.002	1.492 ± 0.002	1.489 ± 0.002	–	–	–
[2], x1 = 0.709	–	–	–	1.498 ± 0.002	1.495 ± 0.002	1.491 ± 0.002	–	–	–
[2], x1 = 0.822	–	–	–	1.501 ± 0.002	1.498 ± 0.002	1.495 ± 0.002	–	–	–
[2], x1 = 1	–	–	–	1.505 ± 0.002	1.503 ± 0.002	1.499 ± 0.002	–	–	–

CCOc1ccccc1 [ethoxybenzene] + CN(C)C=O
Conditions	mass density, 298 K [kg/m3]	mass density, 303 K [kg/m3]	mass density, 308 K [kg/m3]	refractive index, 298 K	refractive index, 303 K	refractive index, 308 K	speed of sound, 298 K [m/s]	speed of sound, 303 K [m/s]	speed of sound, 308 K [m/s]
[1], x1 = 0.031	946 ± 2	941 ± 2	936 ± 2	–	–	–	1452 ± 2	1432 ± 2	1415 ± 2
[1], x1 = 0.091	948 ± 2	943 ± 2	939 ± 2	–	–	–	1443 ± 2	1424 ± 2	1406 ± 2
[1], x1 = 0.153	950 ± 2	945 ± 2	941 ± 2	–	–	–	1435 ± 2	1415 ± 2	1398 ± 2
[1], x1 = 0.223	952 ± 2	947 ± 2	943 ± 2	–	–	–	1427 ± 2	1407 ± 2	1389 ± 2
[1], x1 = 0.304	954 ± 2	949 ± 2	945 ± 2	–	–	–	1418 ± 2	1398 ± 2	1380 ± 2
[1], x1 = 0.463	956 ± 2	952 ± 2	948 ± 2	–	–	–	1403 ± 2	1383 ± 2	1365 ± 2
[1], x1 = 0.556	957 ± 2	953 ± 2	949 ± 2	–	–	–	1396 ± 2	1376 ± 2	1357 ± 2
[1], x1 = 0.642	958 ± 2	954 ± 2	949 ± 2	–	–	–	1390 ± 2	1370 ± 2	1350 ± 2
[1], x1 = 0.8	959 ± 2	955 ± 2	950 ± 2	–	–	–	1379 ± 2	1360 ± 2	1340 ± 2
[1], x1 = 1	960 ± 2	955 ± 2	951 ± 2	–	–	–	1369 ± 2	1349 ± 2	1329 ± 2
[2], x1 = 0.031	–	–	–	1.431 ± 0.002	1.43 ± 0.002	1.427 ± 0.002	–	–	–
[2], x1 = 0.091	–	–	–	1.437 ± 0.002	1.435 ± 0.002	1.432 ± 0.002	–	–	–
[2], x1 = 0.153	–	–	–	1.442 ± 0.002	1.44 ± 0.002	1.437 ± 0.002	–	–	–
[2], x1 = 0.223	–	–	–	1.448 ± 0.002	1.446 ± 0.002	1.442 ± 0.002	–	–	–
[2], x1 = 0.304	–	–	–	1.455 ± 0.002	1.452 ± 0.002	1.449 ± 0.002	–	–	–
[2], x1 = 0.463	–	–	–	1.468 ± 0.002	1.465 ± 0.002	1.461 ± 0.002	–	–	–
[2], x1 = 0.556	–	–	–	1.475 ± 0.002	1.471 ± 0.002	1.468 ± 0.002	–	–	–
[2], x1 = 0.642	–	–	–	1.481 ± 0.002	1.478 ± 0.002	1.474 ± 0.002	–	–	–
[2], x1 = 0.8	–	–	–	1.493 ± 0.002	1.489 ± 0.002	1.485 ± 0.002	–	–	–
[2], x1 = 1	–	–	–	1.505 ± 0.002	1.503 ± 0.002	1.499 ± 0.002	–	–	–
